Source: patent publication US20220380368A1, “SPIROCYCLIC ANDROGEN RECEPTOR PROTEIN DEGRADERS” (THE REGENTS OF THE UNIVERSITY OF MICHIGAN, priority 2019, published 2022)
Like-named read-outs stand apart in the source and are kept apart here.

Legend:
[1] = Mouse PK studies after oral and IV dosing; type: in vivo; settings: for F: PO 3 mg/kg vs IV 1 mg/kg; for AUC(0-t) / clearance / half-life / Vd / Cmax / Tmax: in vivo; for clearance: read-out: IV Cl (converted); for Vd: read-out: IV VSS
Protocol: The pharmacokinetics of representative Compounds of the Disclosure were determined after oral and IV dosing at the concentrations indicated in mouse (Table 7). […] The vehicles used in these studies are either (i) 10% PEG400+90% PBS (adjusted to pH to 8.0 by 0.5 N NaOH); or (ii) 100% PEG200.

AR protein = target: T1, AR protein (Homo sapiens, UniProt P10275); experiment: Western blotting analysis of AR protein levels in VCaP cells, band quantification, DC50/DC90; type: cell-based
T1 construct: endogenous in cells; host or cells: VCaP
T1 sequence (P10275 1-920): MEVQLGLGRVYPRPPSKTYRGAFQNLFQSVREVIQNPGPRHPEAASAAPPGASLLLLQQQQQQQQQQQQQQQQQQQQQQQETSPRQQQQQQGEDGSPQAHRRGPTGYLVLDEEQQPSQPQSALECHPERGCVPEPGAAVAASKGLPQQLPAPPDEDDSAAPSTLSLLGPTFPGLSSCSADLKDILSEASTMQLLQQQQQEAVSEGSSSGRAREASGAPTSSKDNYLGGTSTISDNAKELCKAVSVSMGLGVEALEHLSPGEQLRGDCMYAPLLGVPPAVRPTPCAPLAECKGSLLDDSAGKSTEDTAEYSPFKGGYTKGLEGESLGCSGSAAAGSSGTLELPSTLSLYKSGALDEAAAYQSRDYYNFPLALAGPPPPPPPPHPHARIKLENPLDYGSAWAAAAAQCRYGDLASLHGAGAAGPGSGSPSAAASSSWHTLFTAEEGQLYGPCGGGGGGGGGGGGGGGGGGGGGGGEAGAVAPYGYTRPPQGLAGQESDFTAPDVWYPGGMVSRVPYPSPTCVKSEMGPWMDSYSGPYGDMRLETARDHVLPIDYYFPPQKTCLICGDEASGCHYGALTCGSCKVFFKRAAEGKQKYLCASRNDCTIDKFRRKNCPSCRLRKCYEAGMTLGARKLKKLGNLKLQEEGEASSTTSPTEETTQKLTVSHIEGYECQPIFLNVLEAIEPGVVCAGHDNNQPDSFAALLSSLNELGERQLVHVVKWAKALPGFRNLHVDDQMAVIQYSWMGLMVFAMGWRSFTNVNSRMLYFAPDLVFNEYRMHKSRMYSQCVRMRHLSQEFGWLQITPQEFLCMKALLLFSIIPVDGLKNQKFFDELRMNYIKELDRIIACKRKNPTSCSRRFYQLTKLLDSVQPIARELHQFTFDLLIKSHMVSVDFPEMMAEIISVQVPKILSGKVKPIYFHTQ
How it was run: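 VCaP cells treated with compounds, lysed in RIPA and probed for AR by Western blot with GAPDH loading control. Band intensities normalised to GAPDH; DC50 from curve fit, DC90 calculated from DC50 and Hill slope via four-parameter equation.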

[2] = iv, 1 mg/kg, IV, dose 1 mg/kg, read-out: IV AUC(0 − t)
[3] = iv, 1 mg/kg, IV, dose 1 mg/kg, read-out: IV T1/2 (converted)
[4] = po, 3 mg/kg, PO, dose 3 mg/kg, read-out: PO AUC(0 − t)
[5] = po, 3 mg/kg, PO, dose 3 mg/kg, read-out: PO T1/2 (converted)
[6] = VCaP cells, Table 6; read-out: VCaP DC50

Structure (SMILES)	F [1]	AUC(0-t) [1, 2]	clearance ([1]; iv, 1 mg/kg, IV, dose 1 mg/kg)	half-life [1, 3]	Vd ([1]; iv, 1 mg/kg, IV, dose 1 mg/kg)	Cmax ([1]; po, 3 mg/kg)	Tmax ([1]; po, 3 mg/kg)	AUC(0-t) [1, 4]	half-life [1, 5]	DC50 (AR protein; [6])	DC50 (AR protein; read-out: VCaP DC50; VCaP cells, Table 6)
C[C@H]1CC2(CCN(c3cnc(C(=O)N4CCC(N5CCN(c6cc7c(cc6F)C(=O)N(C6CCC(=O)NC6=O)C7=O)CC5)CC4)cn3)CC2)CN1c1ccc(C#N)c(Cl)c1 (stereo partly drawn) [Cpd. No. 498, 2-chloro-4-((3S)-8-(5-(4-(4-(2-(2,6-dioxopiperidin-3-yl)-6-fluoro-1,3-dioxoisoindolin-5-yl)piperazin-1-yl)piperidine-1-carbonyl)pyrazin-2-yl)-3-methyl-2,8-diazaspiro[4.5]decan-2-yl)benzonitrile]	45%	419 ng·h/mL	36.8 mL/min/kg	114 min	3.22 L/kg	191 ng/mL	0.8 h	572 ng·h/mL	138 min	1 to 10 nM	
C[C@H]1CC2(CCN(c3ccc(C(=O)N4CCN(CC5CN(c6cc7c(cc6F)C(=O)N(C6CCC(=O)NC6=O)C7=O)C5)CC4)cc3)CC2)CN1c1ccc(C#N)c(Cl)c1 (stereo partly drawn) [Cpd. No. 502, 2-chloro-4-((3S)-8-(4-(4-((1-(2-(2,6-dioxopiperidin-3-yl)-6-fluoro-1,3-dioxoisoindolin-5-yl)azetidin-3-yl)methyl)piperazine-1-carbonyl)phenyl)-3-methyl-2,8-diazaspiro[4.5]decan-2-yl)benzonitrile]	32%	3490 ng·h/mL	3.33 mL/min/kg	600 min	3 L/kg	289 ng/mL	3.3 h	3390 ng·h/mL	570 min	< 1 nM	
C[C@H]1CC2(CCN(c3ccc(C(=O)N4CCN(CC5CN(c6cc7c(cc6F)C(=O)N(C6CCC(=O)NC6=O)C7=O)C5)CC4)nn3)CC2)CN1c1ccc(C#N)c(Cl)c1 (stereo partly drawn) [Cpd. No. 485, 2-chloro-4-((3S)-8-(6-(4-((1-(2-(2,6-dioxopiperidin-3-yl)-6-fluoro-1,3-dioxoisoindolin-5-yl)azetidin-3-yl)methyl)piperazine-1-carbonyl)pyridazin-3-yl)-3-methyl-2,8-diazaspiro[4.5]decan-2-yl)benzonitrile]	73%	2350 ng·h/mL	6.5 mL/min/kg	588 min	2.95 L/kg	1100 ng/mL	1 h	5150 ng·h/mL	432 min	1 to 10 nM	
C[C@H]1CC2(CCN(c3ccc(C(=O)N4CCN(C5CCN(c6ccc7c(c6)C(=O)N(C6CCC(=O)NC6=O)C7=O)CC5)CC4)cc3F)CC2)CN1c1ccc(C#N)c(Cl)c1 (stereo partly drawn) [Cpd. No. 521, 2-chloro-4-((3S)-8-(4-(4-(1-(2-(2,6-dioxopiperidin-3-yl)-1,3-dioxoisoindolin-5-yl)piperidin-4-yl)piperazine-1-carbonyl)-2-fluorophenyl)-3-methyl-2,8-diazaspiro[4.5]decan-2-yl)benzonitrile]	30%	2990 ng·h/mL	5 mL/min/kg	492 min	3.1 L/kg	344 ng/mL	1.7 h	2730 ng·h/mL	420 min	< 1 nM	
C[C@H]1CC2(CCN(c3ccc(C(=O)N4CCN(C5CN(c6ccc7c(c6)C(=O)N(C6CCC(=O)NC6=O)C7=O)C5)CC4)cc3F)CC2)CN1c1ccc(C#N)c(Cl)c1 (stereo partly drawn) [Cpd. No. 510, 2-chloro-4-((3S)-8-(4-(4-(1-(2-(2,6-dioxopiperidin-3-yl)-1,3-dioxoisoindolin-5-yl)azetidin-3-yl)piperazine-1-carbonyl)-2-fluorophenyl)-3-methyl-2,8-diazaspiro[4.5]decan-2-yl)benzonitrile]	51%	4080 ng·h/mL	3.33 mL/min/kg	498 min	2.1 L/kg	518 ng/mL	2.7 h	6270 ng·h/mL	432 min		< 1 nM
C[C@H]1CC2(CCN(c3ccc(C(=O)N4CCC(CN5CCN(c6cc7c(cc6F)C(=O)N(C6CCC(=O)NC6=O)C7=O)CC5)CC4)nn3)CC2)CN1c1ccc(C#N)c(Cl)c1 (stereo partly drawn) [Cpd. No. 490, 2-chloro-4-((3S)-8-(6-(4-((4-(2-(2,6-dioxopiperidin-3-yl)-6-fluoro-1,3-dioxoisoindolin-5-yl)piperazin-1-yl)methyl)piperidine-1-carbonyl)pyridazin-3-yl)-3-methyl-2,8-diazaspiro[4.5]decan-2-yl)benzonitrile]	25%	4920 ng·h/mL	3 mL/min/kg	522 min	1.74 L/kg	639 ng/mL	1 h	3730 ng·h/mL	426 min	1 to 10 nM	
C[C@H]1CC2(CCN(c3ccc(C(=O)N4CCC(N5CCN(c6cc7c(cc6F)C(=O)N(C6CCC(=O)NC6=O)C7=O)CC5)CC4)nn3)CC2)CN1c1ccc(C#N)c(Cl)c1 (stereo partly drawn) [Cpd. No. 500, 2-chloro-4-((3S)-8-(6-(4-(4-(2-(2,6-dioxopiperidin-3-yl)-6-fluoro-1,3-dioxoisoindolin-5-yl)piperazin-1-yl)piperidine-1-carbonyl)pyridazin-3-yl)-3-methyl-2,8-diazaspiro[4.5]decan-2-yl)benzonitrile]	60%	1880 ng·h/mL	7.83 mL/min/kg	156 min	1.53 L/kg	711 ng/mL	1.7 h	3750 ng·h/mL	120 min	1 to 10 nM	
C[C@H]1CC2(CCN(c3cnc(C(=O)N4CCN(CC5CCN(c6ccc7c(c6)C(=O)N(C6CCC(=O)NC6=O)C7=O)CC5)CC4)cn3)CC2)CN1c1ccc(C#N)c(Cl)c1 (stereo partly drawn) [Cpd. No. 494, 2-chloro-4-((3S)-8-(5-(4-((1-(2-(2,6-dioxopiperidin-3-yl)-1,3-dioxoisoindolin-5-yl)piperidin-4-yl)methyl)piperazine-1-carbonyl)pyrazin-2-yl)-3-methyl-2,8-diazaspiro[4.5]decan-2-yl)benzonitrile]	9%	180 ng·h/mL	87.3 mL/min/kg	324 min	16.9 L/kg	36 ng/mL	0.5 h	49 ng·h/mL	144 min	1 to 10 nM	
C[C@H]1CC2(CCN(c3cnc(C(=O)N4CCC(CN5CCN(c6cc7c(cc6F)C(=O)N(C6CCC(=O)NC6=O)C7=O)CC5)CC4)cn3)CC2)CN1c1ccc(C#N)c(Cl)c1 (stereo partly drawn) [Cpd. No. 493, 2-chloro-4-((3S)-8-(5-(4-((4-(2-(2,6-dioxopiperidin-3-yl)-6-fluoro-1,3-dioxoisoindolin-5-yl)piperazin-1-yl)methyl)piperidine-1-carbonyl)pyrazin-2-yl)-3-methyl-2,8-diazaspiro[4.5]decan-2-yl)benzonitrile]	25%	840 ng·h/mL	20.3 mL/min/kg	294 min	4.12 L/kg	224 ng/mL	0.7 h	627 ng·h/mL	288 min	1 to 10 nM	
C[C@H]1CC2(CCN(c3cnc(C(=O)N4CCN(CC5CN(c6cc7c(cc6F)C(=O)N(C6CCC(=O)NC6=O)C7=O)C5)CC4)cn3)CC2)CN1c1ccc(C#N)c(Cl)c1 (stereo partly drawn) [Cpd. No. 488, 2-chloro-4-((3S)-8-(5-(4-((1-(2-(2,6-dioxopiperidin-3-yl)-6-fluoro-1,3-dioxoisoindolin-5-yl)azetidin-3-yl)methyl)piperazine-1-carbonyl)pyrazin-2-yl)-3-methyl-2,8-diazaspiro[4.5]decan-2-yl)benzonitrile]	31%	233 ng·h/mL	70.2 mL/min/kg	300 min	7.75 L/kg	99.6 ng/mL	1 h	213 ng·h/mL	186 min	1 to 10 nM	
